From patent US8507555B2, “Non-toxic anti-cancer drug combining ascorbate, magnesium and a naphthoquinone” (Summa Health System, priority 2006, dated 2013)
pIC50: −log10 of the molar value. Like-named read-outs stand apart in the source and are kept apart here.

Columns and labels:
[1] = system: DU145 Prostate Cancer Cells; test: MTT cytotoxicity assay, DU145 prostate cancer cells; assay type: cell-based, human; conditions: read-out: CD50, vitamin alone
Method: (§1) The effect of the new Mg-containing formulation, which combined MgVC2+VK3, on proliferation and survival of cancer cells was evaluated was then evaluated using the MTT assay, a […] assay that measures the number of viable cells in a cell sample. 3-[4,5-dimethylthiazol-2-yl]-2,5-diphenyltetrazolium bromide (MTT) is a chromogen that is converted to a measurable colored product by viable cells. Therefore, the amount of color measured is proportional to the number of viable cells. This assay has been used widely to assess the cytotoxicity and selectivity of anti-cancer drugs because MTT is suitable for rapid toxicity characterization of new drug candidates and formulations. One way of assigning a cytotoxic activity to an agent is by converting the raw date to a CD50 value, which represent the amount (dose) of the agent needed to achieve 50% of the maximal cytotoxic activity. A lower CD50 indicates a greater cytotoxic activity (as a lower amount of the agent is needed to achieve a fixed level of cytotoxicity). Two agents can be compared by examining the fold-increase or decrease in their CD50 values.
(§2) To evaluate the antitumor activity at a MgVC2:VK3 ratio of […], MgVC was combined with VK3 at a MgVC2:VK3 ratio of 100:1 (which is effectively a VC:VK3 ratio of 200:1). The NaVC:K3 formulation was prepared at a ratio of 200:1.
The antitumor activity of the two formulations against a human androgen-independent prostate cancer cell line DU145 was evaluated in the MTT assay.

HS68 Fibroblasts = test: MTT cytotoxicity assay, HS68 fibroblasts; assay type: cell-based; conditions: read-out: CD50, vitamin alone
Method: as §1, §2
This indicates a selectivity for tumor vs. “normal” cells.

DNase I = conditions: tumor cells; cited from earlier work
[2] = Homo sapiens, DU-145, 24 h, 1 day
[3] = Homo sapiens, DU-145, 48 h, 2 days
[4] = Homo sapiens, DU-145, 72 h, 3 days

Row | Molecule | pIC50 [1, 2] | pIC50 [1, 3] | pIC50 [1, 4] | pIC50 (HS68 Fibroblasts; Homo sapiens, 24 h, 1 day) | pIC50 (HS68 Fibroblasts; Homo sapiens, 48 h, 2 days) | pIC50 (HS68 Fibroblasts; Homo sapiens, 72 h, 3 days) | time of exposure to re-expression of latent DNase I activity (DNase I) | pIC50 ([1]; 1 day) | pIC50 ([1]; 2 days) | pIC50 ([1]; 3 days) | pIC50 (HS68 Fibroblasts; 1 day) | pIC50 (HS68 Fibroblasts; 2 days) | pIC50 (HS68 Fibroblasts; 3 days)
1 | O=C1O[C@H]([C@@H](O)CO)C(O)=C1O [NaVC, sodium ascorbate] | 2.51 | 2.83 | 3.00 | 2.83 | 2.90 | 2.93 |  |  |  |  |  |  | 
2 | CC1=CC(=O)c2ccccc2C1=O [VK3, 2-methyl-1,4-naphthoquinone] | 4.43 | 4.43 | 4.43 | 4.73 | 4.72 | 4.73 | ≤ 15 min |  |  |  |  |  | 
3 | magnesium ascorbate [MgVC2] |  |  |  |  |  |  |  | 2.60 | 2.94 | 3.36 | 2.78 | 2.76 | 2.82
